Data from patent publication US20220243210A1, “ANGIOTENSIN II TYPE 1 RECEPTOR TARGETED OLIGONUCLEOTIDES AND USES THEREOF” (Ionis Pharmaceuticals, Inc., priority 2019, published 2022).

Tests used:
mouse MALAT RNA = test: MALAT RNA reduction in vivo, C57BL6/J mice, multiple dose; conditions: for ED50: IV day 0, 4, 8
Experimental: Compound Nos. 556089, 1229761, and 1229762 are described in Table 1 above. Compound Nos. 556089, 1229761, and 1229762 were tested in C57BL6/J mice. The mice were divided into groups of 4 mice each. […] The mice were then sacrificed on day 12. Heart, adipose, adrenal, kidney, and liver tissue was then collected and homogenized and RNA analysis was performed. A group of 4 mice received PBS as a negative control.
RNA was extracted from heart, adipose, adrenal, kidney, and liver tissue for real-time PCR analysis of measurement of RNA expression of MALAT using primer probe set mMALAT1 #2 (forward sequence […] (SEQ ID NO: 5); reverse sequence […] (SEQ ID NO: 6); probe sequence […] (SEQ ID NO: 7)). Results are presented as percent change of RNA, relative to PBS control, normalized to mouse GAPDH.

human MALAT1 RNA [1] = test: MALAT1 RNA reduction in HEK-AGTR1 FAP cells, free uptake, 48 hours; format: cell-based; conditions: 48 hours; for MALAT (% control): relative to untreated control cells
Experimental: At the end of the treatment period, total RNA was isolated from the cells and MALAT1 RNA levels were measured by quantitative real-time PCR. […] MALAT1 RNA levels were normalized according to total RNA content, as measured by RIBOGREEN®. […] The half maximal inhibitory concentration (IC50) of each modified oligonucleotide was calculated using a non-linear fit [inhibitor] vs. response-variable slope (three parameters) formula in GraphPad Prism 7.01.

human MALAT1 RNA [2] = test: MALAT1 RNA reduction in HEK-AGTR1 FAP cells, free uptake, 24 hours; format: cell-based; conditions: 24 hours; for MALAT (% control): relative to untreated control cells
Experimental: At the end of the treatment period, total RNA was isolated from the cells and MALAT1 RNA levels were measured by quantitative real-time PC&. […] MALAT1 RNA levels were normalized according to total RNA content, as measured by RIBOGREEN®. Reduction of MALAT1 RNA is presented Table 3 below as percent MALAT1 RNA amount relative to untreated control (UTC) cells. The half maximal inhibitory concentration (IC50) of each modified oligonucleotide was calculated using a non-linear fit [inhibitor] vs. response—variable slope (four parameters) formula in GraphPad Prism 7.01.

HEK-APLNR FAP cells = test: IP1 accumulation negative control in HEK-APLNR FAP cells (do not express AGTR1); format: cell-based, human; conditions: 24 hours
Experimental: Activated AGTR1 couples to the Gαq subunit of heterotrimeric G proteins, which activates the phospholipase C (PLC) and subsequently inositol 1,4,5-trisphosphate (IP3) signaling cascade. AGTR1 signaling was measured using an IP-One Gq kit (cisbio #62IPAPEB). The kit detects the accumulation of inositol monophosphate (IP1), a stable downstream metabolite of IP3 induced by activation of a phospholipase C (PLC) cascade.
As a negative control, Compound Nos. 556089 and 1229761 were also tested in HEK293 cells expressing FAP tagged human Apelin receptor (HEK-APLNR FAP cells from Spectragenetics). […] HEK-APLNR FAP cells were cultured with Compound Nos. 556089 and 1229761, described herein above, at the concentrations detailed in Table 2 for 24 hours.

In the case of “Compound No. 1229762: Extended Angiotensin II peptide [N6-(2-azidoacetyl)-K]PPPAGSSPGDRVYIHPF conjugated via linker to 5′-end of MALAT1 modified oligonucleotide TCAGCATTCTAATAGCAGC”, the “MALAT-1 RNA (% control)” value (mouse MALAT RNA; Adipose, 0.4 μmol/kg IV day 0, 4, 8, sacrifice day 12, relative to PBS) is reported as 58.3 % control, the “MALAT-1 RNA (% control)” value (mouse MALAT RNA; Adipose, 1.2 μmol/kg IV day 0, 4, 8, sacrifice day 12, relative to PBS) is reported as 40.1 % control and the “MALAT-1 RNA (% control)” value (mouse MALAT RNA; Adipose, 3.6 μmol/kg IV day 0, 4, 8, sacrifice day 12, relative to PBS) is reported as 20.5 % control. The ED50 (mouse MALAT RNA; Adipose) was 1.385 µmol/kg, the “MALAT-1 RNA (% control)” value (mouse MALAT RNA; Adrenal, 0.4 μmol/kg IV day 0, 4, 8, sacrifice day 12, relative to PBS) was 87.8 % control and the “MALAT-1 RNA (% control)” value (mouse MALAT RNA; Adrenal, 1.2 μmol/kg IV day 0, 4, 8, sacrifice day 12, relative to PBS) was 66.5 % control. The “MALAT-1 RNA (% control)” value (mouse MALAT RNA; Adrenal, 3.6 μmol/kg IV day 0, 4, 8, sacrifice day 12, relative to PBS) was 45.2 % control, the ED50 (mouse MALAT RNA; Adrenal) was 1.2 µmol/kg and the “MALAT-1 RNA (% control)” value (mouse MALAT RNA; Heart, 0.4 μmol/kg IV day 0, 4, 8, sacrifice day 12, relative to PBS) was 86.2 % control. For the same substance, the “MALAT-1 RNA (% control)” value (mouse MALAT RNA; Heart, 1.2 μmol/kg IV day 0, 4, 8, sacrifice day 12, relative to PBS) was 73.4 % control, the “MALAT-1 RNA (% control)” value (mouse MALAT RNA; Heart, 3.6 μmol/kg IV day 0, 4, 8, sacrifice day 12, relative to PBS) was 40 % control and the ED50 (mouse MALAT RNA; Heart) was 3.14 µmol/kg. For the same substance, the “MALAT-1 RNA (% control)” value (mouse MALAT RNA; Kidney, 0.4 μmol/kg IV day 0, 4, 8, sacrifice day 12, relative to PBS) was 50.6 % control, the “MALAT-1 RNA (% control)” value (mouse MALAT RNA; Kidney, 1.2 μmol/kg IV day 0, 4, 8, sacrifice day 12, relative to PBS) was 43.8 % control and the “MALAT-1 RNA (% control)” value (mouse MALAT RNA; Kidney, 3.6 μmol/kg IV day 0, 4, 8, sacrifice day 12, relative to PBS) was 22.4 % control. The ED50 (mouse MALAT RNA; Kidney) was 3.084 µmol/kg, the “MALAT-1 RNA (% control)” value (mouse MALAT RNA; Liver, 0.4 μmol/kg IV day 0, 4, 8, sacrifice day 12, relative to PBS) was 40.5 % control and the “MALAT-1 RNA (% control)” value (mouse MALAT RNA; Liver, 1.2 μmol/kg IV day 0, 4, 8, sacrifice day 12, relative to PBS) was 15.1 % control. For the same substance, the “MALAT-1 RNA (% control)” value (mouse MALAT RNA; Liver, 3.6 μmol/kg IV day 0, 4, 8, sacrifice day 12, relative to PBS) was 5.7 % control, the ED50 (mouse MALAT RNA; Liver) was 0.085 µmol/kg and the “MALAT (% control)” value (human MALAT1 RNA [1]; 2.7 nM) was 100 % control. For the same substance, the “MALAT (% control)” value (human MALAT1 RNA [1]; 8.2 nM) was 80 % control, the “MALAT (% control)” value (human MALAT1 RNA [1]; 24.7 nM) was 69 % control and the “MALAT (% control)” value (human MALAT1 RNA [1]; 74.1 nM) was 66 % control. The “MALAT (% control)” value (human MALAT1 RNA [1]; 222.2 nM) was 42 % control, the “MALAT (% control)” value (human MALAT1 RNA [1]; 666.7 nM) was 16 % control and the “MALAT (% control)” value (human MALAT1 RNA [1]; 2000 nM) was 12 % control. For the same substance, the “MALAT (% control)” value (human MALAT1 RNA [1]; 6000 nM) was 9 % control, the “MALAT (% control)” value (human MALAT1 RNA [1]; .10 nM) was 103 % control and the “MALAT (% control)” value (human MALAT1 RNA [1]; .3 nM) was 106 % control. For the same substance, the “MALAT (% control)” value (human MALAT1 RNA [1]; .9 nM) was 101 % control, the IC50 (human MALAT1 RNA [1]; MALAT1 RNA, three parameter fit) was 125 nM and the “MALAT (% control)” value (human MALAT1 RNA [2]; 12 nM) was 105 % control. For the same substance, the “MALAT (% control)” value (human MALAT1 RNA [2]; 37 nM) was 90 % control, the “MALAT (% control)” value (human MALAT1 RNA [2]; 111 nM) was 59 % control and the “MALAT (% control)” value (human MALAT1 RNA [2]; 333 nM) was 36 % control. The “MALAT (% control)” value (human MALAT1 RNA [2]; 1000 nM) was 41 % control, the “MALAT (% control)” value (human MALAT1 RNA [2]; 3000 nM) was 22 % control and the “MALAT (% control)” value (human MALAT1 RNA [2]; 9000 nM) was 24 % control. For the same substance, the IC50 (human MALAT1 RNA [2]; MALAT1 RNA, four parameter fit) was 100 nM, the “improvement in target knockdown in words” value (human MALAT1 RNA [2]; among compounds tested) was “greatest improvement in target knockdown” and the IP1 accumulation (HEK-APLNR FAP cells; 0.0256 nM) was 723 nM. The IP1 accumulation (HEK-APLNR FAP cells; 0.128 nM) was 634 nM, the IP1 accumulation (HEK-APLNR FAP cells; 0.64 nM) was 679 nM and the IP1 accumulation (HEK-APLNR FAP cells; 3.2 nM) was 596 nM. For the same substance, the IP1 accumulation (HEK-APLNR FAP cells; 16 nM) was 526 nM, the IP1 accumulation (HEK-APLNR FAP cells; 80 nM) was 517 nM and the IP1 accumulation (HEK-APLNR FAP cells; 400 nM) was 609 nM. It also gave an IP1 accumulation (HEK-APLNR FAP cells; 2000 nM) of 576 nM.
